The results in this text go back to BindingDB's records for patent US20230348467 (Zhejiang Hisun Pharmaceutical, 2023).

In general, IC50 refers to the concentration at which inhibition is half-maximal. Low values mean greater potency in that assay, high ones weaker potency in that assay.

The target of this assay is T1, Tyrosine-protein phosphatase non-receptor type 11 (Homo sapiens, UniProt Q06124).
T1 sequence (Q06124 whole entry): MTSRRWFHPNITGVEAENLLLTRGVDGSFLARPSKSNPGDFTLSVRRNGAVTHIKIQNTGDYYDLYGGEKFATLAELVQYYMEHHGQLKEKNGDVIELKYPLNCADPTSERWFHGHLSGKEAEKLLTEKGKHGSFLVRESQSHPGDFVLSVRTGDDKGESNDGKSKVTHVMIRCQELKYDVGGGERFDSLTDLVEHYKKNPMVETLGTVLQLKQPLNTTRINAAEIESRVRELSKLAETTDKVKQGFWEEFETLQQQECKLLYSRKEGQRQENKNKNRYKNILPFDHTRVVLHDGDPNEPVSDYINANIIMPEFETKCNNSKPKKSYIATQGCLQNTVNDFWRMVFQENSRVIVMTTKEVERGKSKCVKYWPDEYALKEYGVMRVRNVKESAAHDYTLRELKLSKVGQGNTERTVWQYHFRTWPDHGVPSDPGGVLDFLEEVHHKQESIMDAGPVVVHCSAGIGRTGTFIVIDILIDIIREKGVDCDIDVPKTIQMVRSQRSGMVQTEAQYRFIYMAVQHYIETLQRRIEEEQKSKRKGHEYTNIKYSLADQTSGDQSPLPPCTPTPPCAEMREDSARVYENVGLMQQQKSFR
Nature of the assay: Determination of Allosteric Inhibition Activities of the Compounds of the Present Invention on SHP2. As to the method: he experimental process was briefly described as follows: Test compounds were first dissolved in DMSO to prepare storage solutions. […] Then, the compounds to be tested were added in a concentration range of 0.00004-10 uM and incubated at 25 C. for 60 minutes. Then DiFMUP (Thermo, D6567) was added in the reaction and incubated at 25 C. for 30 minutes. After incubation, readings were taken using a microplate reader (BMG) with excitation and emission wavelengths of 340 nm and 450 nm, respectively.
Compound `NC(=O)c1nc(N2C3CCC2CC(N)C3)nc2[nH]nc(-c3cccc(Cl)c3Cl)c12` (stereo not drawn) [US20230348467, Compound 17] gave an IC50 of 4 nM.
To `NC1(c2ccccc2)CCN(c2nc(C(=O)O)c3c(-c4cccc(Cl)c4Cl)n[nH]c3n2)CC1` [US20230348467, Compound 10] belongs 7 nM; to `NC(=O)c1nc(N2CCC(N)(c3cccc(O)c3)CC2)nc2[nH]nc(-c3cccc(Cl)c3Cl)c12` [US20230348467, Compound 51], 3 nM.
